According to ChEMBL document CHEMBL3351607, “Derivatives of imidazotriazine and pyrrolotriazine C-nucleosides as potential new anti-HCV agents” (Bioorg Med Chem Lett, 2014):

Experiments:
[1] = Cytotoxicity against human HuH7 cells; format: cell-based, Huh-7
[2] = Therapeutic index, ratio of CC50 for human HuH7 cells to EC50 for Hepatitis C virus genotype 1b in human HuH7 cells; format: cell-based, Huh-7; conditions: read-out: Ratio CC50/EC50
Hepatitis C virus = experiment: Antiviral activity against Hepatitis C virus genotype 1b in human HuH7 cells assessed as inhibition of viral replication after 72 hrs by luciferase reporter assay; format: functional, cell-based, Hepacivirus hominis; conditions: Huh-7, 72 h

Compound	CC50 [1]	selectivity ratio [2]	EC50 (Hepatitis C virus)
C[C@@]1(O)[C@H](O)[C@@H](CO)O[C@H]1c1cnc2c(N)ncnn12	26 µM		
C[C@@]1(O)[C@H](O)[C@@H](CO)O[C@H]1c1ccc2c(N)ncnn12	> 100 µM		
C[C@@]1(O)[C@H](O)[C@@H](CO)O[C@H]1c1cc(F)c2c(N)ncnn12	> 100 µM	> 30	3100 nM
C[C@@]1(O)[C@H](O)[C@@H](CO)O[C@H]1c1cc(Cl)c2c(N)ncnn12	6.5 µM		260 nM
C[C@@]1(O)[C@H](O)[C@@H](CO)O[C@H]1c1cc(C#N)c2c(N)ncnn12	22.1 µM		990 nM
C[C@@]1(O)[C@H](O)[C@@H](CO)O[C@H]1c1cc(C(N)=O)c2c(N)ncnn12	0.37 µM		6.2 nM
C#Cc1cc([C@@H]2O[C@H](CO)[C@@H](O)[C@@]2(C)O)n2ncnc(N)c12	0.93 µM		170 nM
C[C@@]1(O)[C@H](O)[C@@H](CO)O[C@H]1c1cc(-c2ncco2)c2c(N)ncnn12	35.7 µM		1800 nM
C[C@@]1(O)[C@H](O)[C@@H](CO)O[C@H]1c1cc(-c2ncc[nH]2)c2c(N)ncnn12	27.1 µM		690 nM
C[C@@]1(O)[C@H](O)[C@@H](CO)O[C@H]1c1c(F)cc2c(N)ncnn12	> 100 µM		> 50000 nM
C[C@@]1(O)[C@H](O)[C@@H](CO)O[C@H]1c1ccc2c(N)nc(N)nn12	> 100 µM		> 50000 nM
C[C@@]1(O)[C@H](O)[C@@H](CO)O[C@H]1c1cnc2c(N)nc(Cl)nn12	> 100 µM		> 50000 nM
C[C@@]1(O)[C@H](O)[C@@H](CO)O[C@H]1c1cnc2c(N)nc(F)nn12	> 100 µM		> 50000 nM
C[C@@]1(O)[C@H](O)[C@@H](CO)O[C@H]1c1cnc2c(N)nc(N)nn12	> 100 µM		> 50000 nM
